Assay results: patent US6841569B2, “Carbamates of 2-heterocyclic-1,2-ethanediols” (SK Corporation, priority 2001, dated 2005)

What was measured:
mice (ICR strain) = experiment: Maximal ElectroShock (MES) test; format: in vivo; conditions: dosed i.p., Hour 1, elimination of hindlimb tonic extension, 50 mA-60 Hz for 0.2 second
Method: The therapeutic use of the compounds of formula I as anticonvulsants has been established by the “Maximal ElectroShock (MES)” test, which is a well-established pharmacological screening method for anticonvulsants against partial seizures, and the results are presented in Table I. The procedure employed in the MES test for anticonvulsants is as follows. The dosing solutions of the compounds to be tested were prepared in saline. The subjects, namely, mice (ICR strain), were dosed i.p. After the designated number of hours, maximal electroshock was induced in mice via corneal electrodes using IITC Life Science model 11A Shocker at 50 mA-60 Hz for 0.2 second. […] Median efficacy dose (ED50) levels were determined using three different dose levels with at least 6 mice in each group.

Row | SMILES | MES ED50 (mice (ICR strain)) [mg/kg] | melting point [°C]
1 | CNC(=O)OCC(OC(=O)NC)c1ccc(Cl)s1 (stereo not drawn) [Example 7] | 37.4 | –
2 | NC(=O)OCC(OC(N)=O)c1ccc(C(F)(F)F)s1 (stereo not drawn) [Example 14, (2-(5-trifluoromethyl-2-thienyl)-2-carbomoyloxyethyl)oxocarboxamide] | 12.6 | –
3 | O=NC(=O)CC(O)c1cccs1 (stereo not drawn) [Example 21, (2-(2-thienyl)-2-hydroxyethyl)oxocarboxamide] | – | 71 to 73
